The source of these data is ChEMBL document CHEMBL1201862, “PubChem BioAssay data set” (2004).

A short description of assay [1]: Luminescence Cell-Based Dose Response HTS to Identify Inhibitors of 5'UTR Stem-Loop Driven Prion Protein mRNA Translation in H4 Neuroglioblastoma Cells. [Related pubchem assays: 1827 (Project Summary), 1813 (Primary HTS)]. It counts as functional.
A short description of assay [2]: alpha-synuclein stem-loop luciferase translation blockers – H4 neuroglioma cells, luminescence, confirmation (AID 1988). Type of assay: functional, cell-based.
Assay [3] can be described thus: luciferase reporter signal suppression in cells – H4 neuroglioma cells, luminescence, dose response (AID 1990). It counts as functional, cell-based.
Assay [4] is described as follows: cells. It counts as functional, cell-based.
A short description of assay [5]: cells. Type of assay: functional, cell-based. The source holds these as a separate data set.
A further assay deals with Vero. The assay can be described thus: cells. Type of assay: functional. The note with it: Chlorocebus sabaeus.
The nature of assay [6]: Luminescence Cell-Based Dose Retest to Confirm Inhibitors of Cancer Stem Cells. [Related pubchem assays (depositor defined):AID2717, AID2721]. The settings on record: Homo sapiens. It counts as functional.
The target in assay [7] is T1, Fatty acid synthase (Homo sapiens, UniProt P49327). As to the kind of experiment: inhibition of human FAS-TE enzyme activity – biochemical, kinetic fluorescence intensity, dose response (AID 624326).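 Also: rate of fluorescence rise from hydrolysis of a fluorogenic O-methyl fluorescein ester substrate.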 Type of assay: functional.
T1 sequence (P49327 whole entry): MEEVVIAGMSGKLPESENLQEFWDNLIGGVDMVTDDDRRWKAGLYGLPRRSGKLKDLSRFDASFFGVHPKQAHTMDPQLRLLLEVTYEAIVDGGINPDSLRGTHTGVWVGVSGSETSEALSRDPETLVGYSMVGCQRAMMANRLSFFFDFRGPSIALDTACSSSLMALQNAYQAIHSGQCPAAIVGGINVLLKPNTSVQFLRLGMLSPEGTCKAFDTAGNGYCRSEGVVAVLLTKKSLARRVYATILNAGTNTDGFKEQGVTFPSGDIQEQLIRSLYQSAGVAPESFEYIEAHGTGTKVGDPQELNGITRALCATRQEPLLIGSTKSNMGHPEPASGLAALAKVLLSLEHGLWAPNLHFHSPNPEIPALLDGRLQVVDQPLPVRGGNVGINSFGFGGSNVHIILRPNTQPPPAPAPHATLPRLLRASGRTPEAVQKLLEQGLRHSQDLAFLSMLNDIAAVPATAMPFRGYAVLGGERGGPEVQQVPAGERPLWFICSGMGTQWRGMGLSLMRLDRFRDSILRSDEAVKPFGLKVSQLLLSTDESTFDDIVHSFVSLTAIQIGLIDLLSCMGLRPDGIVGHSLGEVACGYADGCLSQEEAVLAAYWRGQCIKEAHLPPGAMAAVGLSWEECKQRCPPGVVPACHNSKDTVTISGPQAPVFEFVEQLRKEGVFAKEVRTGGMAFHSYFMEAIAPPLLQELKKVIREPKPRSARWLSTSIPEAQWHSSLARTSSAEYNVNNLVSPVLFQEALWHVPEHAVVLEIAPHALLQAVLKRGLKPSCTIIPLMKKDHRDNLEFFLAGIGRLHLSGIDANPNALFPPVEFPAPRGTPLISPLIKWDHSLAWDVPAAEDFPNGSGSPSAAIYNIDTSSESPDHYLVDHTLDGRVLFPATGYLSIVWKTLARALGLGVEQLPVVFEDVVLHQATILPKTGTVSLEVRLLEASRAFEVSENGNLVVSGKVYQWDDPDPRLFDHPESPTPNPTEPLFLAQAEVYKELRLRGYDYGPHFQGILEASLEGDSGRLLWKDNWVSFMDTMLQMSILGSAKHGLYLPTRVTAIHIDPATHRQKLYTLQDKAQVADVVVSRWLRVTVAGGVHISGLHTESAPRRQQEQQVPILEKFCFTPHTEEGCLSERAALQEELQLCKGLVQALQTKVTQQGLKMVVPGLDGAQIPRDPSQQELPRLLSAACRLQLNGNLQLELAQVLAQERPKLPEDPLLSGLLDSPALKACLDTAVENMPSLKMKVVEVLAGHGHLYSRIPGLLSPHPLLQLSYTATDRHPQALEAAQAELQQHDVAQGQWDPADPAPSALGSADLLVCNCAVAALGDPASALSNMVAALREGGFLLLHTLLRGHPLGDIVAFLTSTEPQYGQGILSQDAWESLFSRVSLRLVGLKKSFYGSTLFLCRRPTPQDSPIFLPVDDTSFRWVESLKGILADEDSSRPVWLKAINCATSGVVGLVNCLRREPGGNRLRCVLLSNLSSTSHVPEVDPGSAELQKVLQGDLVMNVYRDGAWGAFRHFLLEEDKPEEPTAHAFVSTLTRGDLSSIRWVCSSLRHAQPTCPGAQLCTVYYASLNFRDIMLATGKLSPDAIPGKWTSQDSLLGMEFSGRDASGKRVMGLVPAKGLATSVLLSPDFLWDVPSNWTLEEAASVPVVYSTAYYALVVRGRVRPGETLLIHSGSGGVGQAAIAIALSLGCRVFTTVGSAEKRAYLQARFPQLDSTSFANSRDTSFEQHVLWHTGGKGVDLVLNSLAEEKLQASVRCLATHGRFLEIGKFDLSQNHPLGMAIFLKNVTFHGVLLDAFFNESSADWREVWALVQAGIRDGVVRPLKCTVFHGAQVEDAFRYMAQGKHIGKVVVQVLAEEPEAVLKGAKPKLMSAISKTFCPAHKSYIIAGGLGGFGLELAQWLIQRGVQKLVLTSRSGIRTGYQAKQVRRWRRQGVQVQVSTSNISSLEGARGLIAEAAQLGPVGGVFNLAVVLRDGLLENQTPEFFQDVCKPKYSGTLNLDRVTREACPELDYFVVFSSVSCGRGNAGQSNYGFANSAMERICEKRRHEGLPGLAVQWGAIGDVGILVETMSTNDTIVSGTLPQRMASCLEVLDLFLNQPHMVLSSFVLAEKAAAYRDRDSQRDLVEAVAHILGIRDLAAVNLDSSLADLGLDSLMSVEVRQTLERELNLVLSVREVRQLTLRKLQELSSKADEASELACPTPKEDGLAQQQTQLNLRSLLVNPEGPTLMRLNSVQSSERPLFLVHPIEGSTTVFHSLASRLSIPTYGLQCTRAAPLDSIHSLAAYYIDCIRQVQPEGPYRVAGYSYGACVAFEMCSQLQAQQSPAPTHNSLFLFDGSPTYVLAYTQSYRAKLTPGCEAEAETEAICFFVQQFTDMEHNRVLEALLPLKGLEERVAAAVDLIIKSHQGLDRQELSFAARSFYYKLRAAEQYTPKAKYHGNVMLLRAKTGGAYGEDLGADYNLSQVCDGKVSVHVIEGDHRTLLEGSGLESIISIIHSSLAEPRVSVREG
Assay [8] addresses T1, Fatty acid synthase. The assay can be described thus: inhibition of human FAS-TE enzyme activity – biochemical, endpoint fluorescence intensity, uHTS hits, dose response (AID 624327).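 Also: fluorescence from hydrolysis of an O-methyl fluorescein acyl ester substrate by the enzyme.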 Type of assay: functional.
The subject of a further assay is H4. As to the kind of experiment: Luminescence Cell-Based Dose Response HTS to Identify Activators of 5'UTR Stem-Loop Driven Prion Protein mRNA Translation in H4 Neuroglioblastoma Cells. [Related pubchem assays: 1829 (Project Summary), 1814 (Primary HTS)]. It counts as functional. The settings on record: Homo sapiens.
Assay [9] can be described thus: Luminescence Cell-Based Dose Response HTS to Identify Activators of Luciferase Translation or Activity in H4 […] Cells. [Related pubchem assays: 1829 (Project Summary), 1814 (Primary HTS)]. Type of assay: functional.
Assay [10] concerns the target T2, Calpain-2 catalytic subunit (Sus scrofa, UniProt P43367).
T2 sequence (P43367 whole entry): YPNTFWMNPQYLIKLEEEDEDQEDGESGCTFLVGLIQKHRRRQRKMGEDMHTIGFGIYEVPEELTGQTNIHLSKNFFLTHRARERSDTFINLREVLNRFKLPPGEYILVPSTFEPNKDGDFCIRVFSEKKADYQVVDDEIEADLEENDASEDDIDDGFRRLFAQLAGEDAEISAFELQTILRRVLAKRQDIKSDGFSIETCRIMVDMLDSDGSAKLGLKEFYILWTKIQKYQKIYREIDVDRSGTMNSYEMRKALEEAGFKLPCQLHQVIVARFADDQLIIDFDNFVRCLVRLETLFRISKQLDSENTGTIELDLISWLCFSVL
As to the kind of experiment: m-calpain protease blockers, concentration series – biochemical, fluorogenic peptide substrate, dose response (AID 1420). Type of assay: functional.

Assay [11] can be described thus: viability of uninfected HEp-2 cells – cell-based, HTS, cytotoxicity control for RSV inhibitor project, dose response (AID 2410). The settings on record: human respiratory syncytial virus. It counts as functional.
A further assay concerns the target T3, Cytochrome P450 1A2 (Homo sapiens, UniProt P05177).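 Also: PubChem cytochrome P450 panel assay, CYP1A2 panel member.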
T3 sequence (P05177 whole entry): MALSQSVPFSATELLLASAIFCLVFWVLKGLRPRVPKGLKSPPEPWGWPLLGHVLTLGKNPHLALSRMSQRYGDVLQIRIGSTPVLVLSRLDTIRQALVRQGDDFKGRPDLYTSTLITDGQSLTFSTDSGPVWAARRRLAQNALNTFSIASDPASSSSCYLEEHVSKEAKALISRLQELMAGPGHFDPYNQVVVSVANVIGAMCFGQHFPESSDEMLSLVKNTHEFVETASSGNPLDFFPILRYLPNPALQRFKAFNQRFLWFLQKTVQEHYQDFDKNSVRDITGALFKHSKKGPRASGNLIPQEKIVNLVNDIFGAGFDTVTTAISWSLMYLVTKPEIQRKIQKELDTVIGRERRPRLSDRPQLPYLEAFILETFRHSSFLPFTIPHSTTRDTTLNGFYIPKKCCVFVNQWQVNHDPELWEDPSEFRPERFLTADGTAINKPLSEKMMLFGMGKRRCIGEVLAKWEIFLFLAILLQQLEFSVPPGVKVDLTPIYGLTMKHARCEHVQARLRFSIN

The nature of assay [12]: non-specific 3'UTR reporter inhibition in Clone20-Shn3RL – cell-based, Renilla luciferase, cherry-picked, counter-screen for Shn3 inhibitor project, dose response (AID 624133). Type of assay: functional.
The nature of assay [13]: reduction of Shn3 3'UTR-driven luciferase in osteoblasts – cell-based, Clone20 osteoblasts, firefly luciferase, cherry-picked, dose response (AID 624132).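 Also: firefly luciferase luminescence from reporter carrying the Shn3 3'UTR in osteoblasts.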 It counts as functional.
Assay [14] in a line: loss of viability in HepG2 cells – cell-based, CellTiter-Glo, cherry-picked, cytotoxicity control for Shn3 inhibitor project, dose response (AID 624134). Type of assay: functional.
Another assay has as its target Paired box protein Pax-8 (Homo sapiens, UniProt Q06710). As to the kind of experiment: PAX8 transcriptional activity inhibition in RMG-I – RMG-I cells, luciferase, cherry-pick, dose response (AID 687027).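 Also: luciferase reporter driven by Pax8 target thyroperoxidase promoter measured by SteadyGlo luminescence.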 It counts as functional, cell-based.
Assay [15] can be described thus: P. falciparum Dd2 growth inhibitors, dose response, SYBR Green, cherry-picked samples (AID 1159567). It counts as functional, cell-based.

The source made the active and inactive calls. Some results are limits rather than exact numbers.

Chain of Paired box protein Pax-8 (Q06710 whole entry): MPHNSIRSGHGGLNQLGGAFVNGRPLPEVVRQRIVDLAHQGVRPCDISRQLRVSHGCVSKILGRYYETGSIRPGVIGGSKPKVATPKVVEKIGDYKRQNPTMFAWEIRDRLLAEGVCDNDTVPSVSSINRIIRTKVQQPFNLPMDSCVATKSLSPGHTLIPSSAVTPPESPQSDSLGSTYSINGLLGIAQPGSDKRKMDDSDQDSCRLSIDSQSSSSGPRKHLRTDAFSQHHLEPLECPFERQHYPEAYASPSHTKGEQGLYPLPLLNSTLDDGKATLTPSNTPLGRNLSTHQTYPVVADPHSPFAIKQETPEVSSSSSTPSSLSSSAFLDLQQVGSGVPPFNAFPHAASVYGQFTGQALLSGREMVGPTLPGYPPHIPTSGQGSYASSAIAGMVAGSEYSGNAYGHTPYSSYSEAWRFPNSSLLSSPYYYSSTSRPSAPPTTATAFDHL

As to `O=C(Nc1ccccc1Cl)N1CCN(c2ccc3nnc(-c4ccc(F)cc4)n3n2)CC1`, the EC50 in assay [1] was 15.2 µM (active); in [2], > 120 µM (not active); in [3], 13.4 µM (active).

As for `COc1ccc(N2CCN(C(=O)COc3ccc4c(C)c(C)c(=O)oc4c3C)CC2)cc1`, the EC50 in “cells [4]” and in “cells [5]” was > 350 µM (not active) each time.

For `Cc1c(C(=O)N2CCOCC2)sc(NC(=O)CCl)c1C#N`, the CC50 in the assay on Vero is 22.3 µM (active).

In the case of `Cc1cc(C(=O)Nc2ccc3c(c2)OCCO3)ccc1[N+](=O)[O-]`, in assay [1], the EC50 is 13.7 µM (active).

`COc1cc(-c2noc(C)c2C#Cc2ccccn2)cc(OC)c1OC`: the EC50 was > 120 µM (not active) in assay [1], 0.25 µM (active) in [2] and 9.32 µM (active) in assay [3]. The AC50 in assay [6] is 0.394 µM (active).

With `CN(C(=O)COC(=O)c1cc([N+](=O)[O-])ccc1Cl)c1ccccc1`, the values for the IC50 on Fatty acid synthase [7] and on Fatty acid synthase [8] were 7 µM (active) and 9.59 µM (active), respectively.

Turning to `COc1ccc2c(c1)CCc1cc(C(=O)N3CCN(c4ccc(N5CCOCC5)nn4)CC3)sc1-2`, the EC50 is > 120 µM (not active) in [1], > 120 µM (not active) in assay [2] and 13.6 µM (active) in assay [3].

For `COc1ccc(-c2cc3nc(C)c(CCC(=O)NC(C)CCc4ccco4)c(C)n3n2)c(OC)c1` (stereo not given), the EC50 in [1], in assay [2] and in [3] was > 120 µM (not active) in each case.

As to `O=C(/C=C/c1cc([N+](=O)[O-])ccc1OC(F)F)NCc1ccc(F)cc1`, the IC50 is 0.999 µM (active) on Fatty acid synthase [7] and 1.33 µM (active) on Fatty acid synthase [8].

Regarding `O=C(Nc1cnc2sccn2c1=O)c1ccccc1Cl`, the EC50 is > 120 µM (not active) in the assay on H4 and 0.199 µM (active) in assay [9].

Regarding `O=C(O)c1cccnc1SCc1ccccc1Cl`, the EC50 in “cells [4]” and in “cells [5]” was > 350 µM (not active) in each case.

As to `O=C(CCNC(=O)c1ccc([N+](=O)[O-])cc1)NCCC1=CCCCC1`, the IC50 on Fatty acid synthase [7] is 3.4 µM (active); at Fatty acid synthase [8] it was 3.75 µM (active).

Take `Cc1ccccc1NC(=O)CN(C)S(=O)(=O)c1ccc(-c2ccc(O)nn2)s1`: the EC50 in “cells [4]” and in the assay “cells [5]” was > 350 µM (not active) throughout.

Turning to `COc1ccc(CCNc2nncc(O)n2)cc1OC`, the EC50 in the assay “cells [4]” and in “cells [5]” was > 350 µM (not active) each time.

Turning to `c1ccc(OCc2nc(-c3ccncc3)no2)cc1`, the EC50 in the assay “cells [4]” and in the assay “cells [5]” was > 350 µM (not active) each time.

With `CCCCCCCC1CC(=O)C=C(C)C1C(=O)OCC` (stereo not given), the EC50 in “cells [4]” and in the assay “cells [5]” was > 350 µM (not active) throughout.

For the compound `O=C(NCc1ccc2c(c1)OCO2)c1ccc2c(c1)N(Cc1c(F)cccc1Cl)C(=O)CS2`, the IC50 was 6.15 µM (active) at Fatty acid synthase [7] and 10.3 µM (active) at Fatty acid synthase [8].

Regarding `Cc1ccc(C2=NS(=O)(=O)N(C)C(C(=O)NC3CCCC3)=C2)cc1`, the EC50 in “cells [4]” and in “cells [5]” was > 350 µM (not active) each time.

Turning to `COC(=O)c1c(C)n(Cc2ccccc2)c2ccc(O)cc12`, the EC50 in [1], in [2] and in assay [3] was > 120 µM (not active) each time.

Consider `Cc1ccc(N(CCCCN2C(=O)c3ccccc3C2=O)C(=O)c2ccc(Cl)s2)cc1`, for which, in assay [10], the IC50 was 2.83 µM (not active). Besides, the CC50 in [11] is 24.1 µM (active).

In the case of `O=C(O)c1cccc(N2CCCC2=O)c1`, the EC50 in the assay “cells [4]” and in “cells [5]” was > 350 µM (not active) throughout. Further, the AC50 on Cytochrome P450 1A2 is 14.1 µM (inconclusive).

`CCOC(=O)c1c(NC(=O)CN2C(=O)NC3(CCC(C)CC3)C2=O)sc(C)c1-c1ccc(C)cc1` (stereo not given): the values for the EC50 in “cells [4]” and in the assay “cells [5]” were > 350 µM (not active) and 49.6 µM (active), respectively.

In the case of `c1coc(-c2nnc3n2C2(CCCC2)Cc2ccccc2-3)c1`, the EC50 in assay [1], in assay [2] and in assay [3] was > 120 µM (not active) in each case.

For `O=C1CC(c2ccccc2)Sc2nc3ccccc3n21` (stereo not given), the EC50 (in the assay with H4; in assay [9]) was 15.4 µM (active) in each case.

For the compound `CC(=O)c1ccc(NC(=O)C(C)OC(=O)/C=C/c2ccco2)cc1` (stereo not given), the AC50 was 15.3 µM (active) in assay [12], 9.12 µM (active) in assay [13] and > 70 µM (inactive) in assay [14].

Turning to `C=C1CC(COc2ccc3c(C)c(Cl)c(=O)oc3c2)(c2ccccc2)OC1=O` (stereo not given), the IC50 on Fatty acid synthase [7] is 12 µM (active); on Fatty acid synthase [8], 10.5 µM (active). Moreover, the half-maximal activity concentration (AC50) in [12] was 9.25 µM (active); at Paired box protein Pax-8, 5.9 µM (active); in assay [13], 4.82 µM (active); in assay [14], 13.2 µM (active).

Take `CCOC(=O)/C(=C/c1ccc(OC(F)F)cc1)C1=Nn2c(nnc2-c2ccc(Cl)cc2)SC1`: the CC50 in the assay on Vero is 7.48 µM (active).

As to `O=C(CN1C(=O)c2ccc([N+](=O)[O-])cc2C1=O)NCCC1=CCCCC1`, the IC50 on Fatty acid synthase [7] is 15.4 µM (active); at Fatty acid synthase [8], 20.9 µM (inactive).

With `Nc1nc(N)c2cc(CNc3ccc(Cl)c(Cl)c3)ccc2n1`, the concentration at half-maximal activity (AC50) is 3.34 µM (active) in assay [12], 0.956 µM (active) in [13] and 1.21 µM (active) in assay [14].

With `C/N=C1/c2cc3cc(OC)ccc3n2CCN1Cc1ccccc1`, the AC50 in assay [14] is 45.4 µM (active).

For the compound `COC(=O)c1cc(C(=O)OCC(=O)NC2CCCCCCC2)cc([N+](=O)[O-])c1`, the IC50 is 8 µM (active) on Fatty acid synthase [7] and 7.09 µM (active) on Fatty acid synthase [8].

In the case of `O=C(c1ccccn1)N1CC[C@H]2[C@H](CO)Nc3ccc(-c4ccccc4)cc3[C@H]21`, the AC50 in [15] is 12.4 µM (active).

Take `C[C@H]1CN([C@@H](C)CO)C(=O)c2ccccc2-c2ccccc2CO[C@H]1CN(C)Cc1cccc(C(F)(F)F)c1`: the AC50 in [15] is 4.48 µM (active).

As for `COc1ccc2c3c(n(C)c2c1)[C@@H](CO)N(CC1CCCCC1)CC31CCN(C(=O)CN(C)C)CC1`, in assay [15], the AC50 is 5.49 µM (active).
